System: chymotrypsin-like activity of the 26S proteasome
Experiment: Proteasome activity assay in SH-SY5Y cell lysates
Format: cell-based, human
Conditions: for Geometric mean, Treatment (Control = 1): SH-SY5Y, Figure S6
Experimental: Building on previous findings, we investigated how selected RUN compounds influence proteasomal function itself. Specifically, we examined the chymotrypsin-like activity of the 26S proteasome following a 16 hour treatment with 7.5 μM RUN compounds in the HEK293 cell line. […] In addition, two other cell lines, MCF7 and SH-SY5Y, were measured (see the SI, Fig. S6).
Figure S6: RUN compounds enhance chymotrypsin-like activity of the 26S proteasome in […]
Cells were treated with 5 µM RUN compounds for 16 hours, with DMSO (0.5%) as the vehicle control. Proteasome chymotrypsin-like activity was measured in cell lysates at 37 °C. Four independent experiments were conducted. Statistical analysis was performed using ratio paired t-tests corrected for multiple comparisons with the Holm-Šídák's method (α = 0.05). Detailed results of the analysis are shown in Supplementary Table S16. […]
2.7 Proteasome activity assay
The corresponding cell lines (HEK293, MCF7, or SH-SY5Y) were seeded into 6-well plates and allowed to adhere overnight under standard culture conditions. On the following day, HEK293 cells were treated with 7.5 µM RUN compounds, whereas MCF7 and SH-SY5Y cells were treated with 5 µM RUN compounds, for 16 hours each. After treatment, cells were harvested, resuspended in lysis buffer (50 mM HEPES, pH 7.5; 5 mM EDTA; 150 mM NaCl; 2 mM ATP; 1% Triton), and centrifuged at 15,000 rpm for 15 minutes at 4 °C. The resulting lysates (25 µg total protein) were incubated with 200 µM of the fluorogenic substrate Suc-Leu-Leu-Val-Tyr-AMC (Bachem, I1395) in assay buffer (50 mM Tris, pH 8.0; 10 mM MgCl₂; 1 mM ATP; 1 mM DTT) at 37 °C. Free AMC release was detected by measuring fluorescence at 360/460 nm. Results of RUN compounds were compared to the DMSO control using a ratio paired t-test corrected for multiple comparisons with the Holm-Šídák's method (α = 0.05) in GraphPad Prism (v 10.6.1).
2.8 XBP1-endoplasmic reticulum (ER) stress reporter assay […]
Two sets of comparisons: 1) […]
treatment with MG132 inhibitor or RUN compounds with DMSO control, 2) RUN compounds vs MG132, were done by two-way repeated-measures ANOVA with Geisser–Greenhouse correction, followed by Dunnett’s multiple comparisons test with individual variances in […]
HCT116 parental cells (WT) and two independent DDI2 knockout clones (KO 04 and KO 11), in which NFE2L1 activation is impaired, were transiently transfected with plasmids encoding either a non-aggregating EGFP-HttQ23 or an aggregation-prone EGFP-HttQ74 construct using Lipofectamine 2000 (Thermo Fisher Scientific) according to the manufacturer’s

| SMILES | Geometric mean, Treatment (Control = 1) | Proteasome chymotrypsin-like activity in SH-SY5Y cells (5 μM, 16 h) |
| --- | --- | --- |
| COc1ccc(/C=C2\CC(N)C/C(=C\c3ccc(OC)c(OC)c3)C2=O)cc1OC (stereo not shown) [RUN-81] | 1.28 |  |
| COc1ccc(/C=C2\CC(NC(=O)C3CCCC3)C/C(=C\c3ccc(OC)c(OC)c3)C2=O)cc1OC (stereo not shown) [RUN-89] | 1.88 | higher median for RUN-89 without reaching statistical significance |
| COc1ccc(/C=C2\CC(NC(=O)c3ccccn3)C/C(=C\c3ccc(OC)c(OC)c3)C2=O)cc1OC (stereo not shown) [RUN-94] | 1.50 |  |
